The record followed here is paper PMC5897336, “Phosphatase activity tunes two-component system sensor detection threshold” (Nature Communications, 2018).

This test concerns ThsS. Particulars: read-out: K1/2; whole E. coli cells, M9 glycerol, 37 °C, agonist, added as Na2S2O3, 200 μM IPTG, 20 ng/mL aTc; wild type taken as the upper end of the printed range.

Structures are written as SMILES.

For the compound `O=S(=O)(O)S` [thiosulfate], the EC50 worked out at 192 µM.
